From patent publication US20250000863A1, “COMBINATION THERAPIES OF KRAS G12D INHIBITORS WITH SOS1 INHIBITORS” (MIRATI THERAPEUTICS, INC., priority 2021, published 2025)

Test system: AsPC-1 cells
Test: AsPC-1 TGI-70 xenograft tumor volume study
Type: in vivo, nude/nude mice
Conditions: for Average Tumor Volumes: MRTX0902 50 mg/kg BID daily, alone or combined, 5 mice per group
From the text: Experimental Procedures. 20 nude/nude mice were inoculated with AsPC-1 cells in the right hind flank. When the tumors reached ˜200 mm^3 four treatment groups were established with five mice per group.

Cc1c(C#N)cccc1[C@@H](C)Nc1nnc(C)c2cnc(N3CCOCC3)cc12 [MRTX0902]
tumor growth inhibition (Day 13, MRTX0902 50 mg/kg BID daily as a single agent): 26%
Average Tumor Volumes (Study Day 1, MRTX1133 30 mg/kg BID daily): 194.8 mm^3
Average Tumor Volumes (Study Day 6, MRTX1133 30 mg/kg BID daily): 215.066 mm^3
Average Tumor Volumes (Study Day 9, MRTX1133 30 mg/kg BID daily): 220.892 mm^3
Average Tumor Volumes (Study Day 13, MRTX1133 30 mg/kg BID daily): 262.374 mm^3
Average Tumor Volumes (Study Day 16, MRTX1133 30 mg/kg BID daily): 316.164 mm^3
Average Tumor Volumes (Study Day 20, MRTX1133 30 mg/kg BID daily): 387.59 mm^3
Average Tumor Volumes (Study Day 23, MRTX1133 30 mg/kg BID daily): 480.782 mm^3

C#Cc1c(F)ccc2cc(O)cc(-c3ncc4c(N5C[C@H]6CC[C@@H](C5)N6)nc(OC[C@@]56CCCN5C[C@H](F)C6)nc4c3F)c12 [MRTX1133, 4-(4-((1R,5S)-3,8-diazabicyclo[3.2.1]octan-3-yl)-8-fluoro-2-(((2R,7aS)-2-fluorohexahydro-1H-pyrrolizin-7a-yl)methoxy)pyrido[4,3-d]pyrimidin-7-yl)-5-ethynyl-6-fluoronaphthalen-2-ol]
tumor regression (Day 13, MRTX1133 30 mg/kg BID daily, alone or with MRTX0902 twice daily): 26%
